Laboratory results published in ChEMBL document CHEMBL1201862, “PubChem BioAssay data set” (2004).
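Grown in 96-well plates, cells were treated for 48 hours with each compound at five concentrations. Insufficient inhibition: endpoint recorded as highest concentration tested. GI50 = concentration required for 50% inhibition of growth.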 Calls of active or inactive are those of the source. Cut-off read from the data, not from the text of the source: active = GI50 up to about 1.1 µM and inactive = higher.

Legend:
Experiment in all cases: NCI tumour cell line growth inhibition, 48 h
MDA-MB-231 = system: MDA-MB-231
MOLT-4 = system: MOLT-4
SNB-75 = system: SNB-75
SF-268 = system: SF-268
NCI-H522 = system: NCI-H522
SR = system: SR
HT-29 = system: HT-29
RPMI-8226 = system: RPMI-8226
A498 = system: A498
PC-3 = system: PC-3
HCT-15 = system: HCT-15
U-251 = system: U-251
NCI-H226 = system: NCI-H226
HL-60 = system: HL-60
SK-MEL-5 = system: SK-MEL-5
SF-295 = system: SF-295
NCI-H23 = system: NCI-H23
A549 = system: A549
MDA-MB-435 = system: MDA-MB-435

CC(=O)OCC12C(=O)C[C@@H](C)C3(CC(c4ccoc4)OC3=O)C1CCC(OC(C)=O)C21CO1 (stereo not given in full)
GI50 (MDA-MB-231): > 100 µM (inactive) | GI50 (MOLT-4): > 100 µM (inactive) | GI50 (SNB-75): > 100 µM (inactive) | GI50 (SF-268): > 100 µM (inactive) | GI50 (NCI-H522): > 100 µM (inactive) | GI50 (SR): > 100 µM (inactive) | GI50 (HT-29): > 100 µM (inactive) | GI50 (RPMI-8226): > 100 µM (inactive) | GI50 (A498): > 100 µM (inactive) | GI50 (PC-3): > 100 µM (inactive) | GI50 (HCT-15): > 100 µM | GI50 (U-251): > 100 µM (inactive) | GI50 (NCI-H226): > 100 µM (inactive) | GI50 (HL-60): > 100 µM (inactive) | GI50 (SK-MEL-5): > 100 µM (inactive) | GI50 (SF-295): > 100 µM (inactive) | GI50 (NCI-H23): > 100 µM (inactive) | GI50 (A549): > 100 µM (inactive) | GI50 (MDA-MB-435): > 100 µM (inactive)

CC(C)(CO[C@H]1C[C@H]2CC[C@@]1(C)C2(C)C)[N+](=O)[O-]
GI50 (MDA-MB-231): 18.1 µM (inactive) | GI50 (MOLT-4): 18.1 µM (inactive) | GI50 (SNB-75): 19.4 µM (inactive) | GI50 (SF-268): 33 µM (inactive) | GI50 (NCI-H522): 20.4 µM (inactive) | GI50 (SR): 5.25 µM (inactive) | GI50 (HT-29): 13 µM (inactive) | GI50 (RPMI-8226): 17.7 µM (inactive) | GI50 (A498): 22.7 µM (inactive) | GI50 (PC-3): 20.9 µM (inactive) | GI50 (HCT-15): 22.6 µM | GI50 (U-251): 16.7 µM (inactive) | GI50 (NCI-H226): 16.1 µM (inactive) | GI50 (HL-60): 0.0363 µM (active) | GI50 (SK-MEL-5): 17.3 µM (inactive) | GI50 (SF-295): 18.6 µM (inactive) | GI50 (NCI-H23): 25.9 µM (inactive) | GI50 (A549): 25.5 µM (inactive) | GI50 (MDA-MB-435): 18.8 µM (inactive)

CSc1nc2cc(S(=O)(=O)N3CCCCC3)ccc2s1
GI50 (MDA-MB-231): > 100 µM (inactive) | GI50 (MOLT-4): > 100 µM (inactive) | GI50 (SNB-75): 61.4 µM (inactive) | GI50 (SF-268): > 100 µM (inactive) | GI50 (NCI-H522): 79.1 µM (inactive) | GI50 (SR): > 100 µM (inactive) | GI50 (HT-29): > 100 µM (inactive) | GI50 (RPMI-8226): > 100 µM (inactive) | GI50 (A498): > 100 µM (inactive) | GI50 (PC-3): > 100 µM (inactive) | GI50 (HCT-15): > 100 µM | GI50 (U-251): > 100 µM (inactive) | GI50 (NCI-H226): > 100 µM (inactive) | GI50 (HL-60): > 100 µM (inactive) | GI50 (SK-MEL-5): > 100 µM (inactive) | GI50 (SF-295): 28 µM (inactive) | GI50 (NCI-H23): > 100 µM (inactive) | GI50 (A549): > 100 µM (inactive) | GI50 (MDA-MB-435): > 100 µM (inactive)

O/N=C1\Nc2ccccc2OCc2cc(Br)c(Br)cc2COc2ccccc2N\C1=N/O
GI50 (MDA-MB-231): 14.8 µM (inactive) | GI50 (MOLT-4): 3.63 µM (inactive) | GI50 (SNB-75): 20.2 µM (inactive) | GI50 (SF-268): 8.91 µM (inactive) | GI50 (NCI-H522): 6.43 µM (inactive) | GI50 (SR): 2.06 µM (inactive) | GI50 (HT-29): 7.85 µM (inactive) | GI50 (RPMI-8226): 10.8 µM (inactive) | GI50 (A498): 17.5 µM (inactive) | GI50 (PC-3): 13.4 µM (inactive) | GI50 (HCT-15): 5.86 µM | GI50 (U-251): 13.8 µM (inactive) | GI50 (NCI-H226): 21.5 µM (inactive) | GI50 (HL-60): 5.18 µM (inactive) | GI50 (SK-MEL-5): 12.9 µM (inactive) | GI50 (SF-295): 16.5 µM (inactive) | GI50 (NCI-H23): 13.8 µM (inactive) | GI50 (A549): 17.6 µM (inactive) | GI50 (MDA-MB-435): 14.8 µM (inactive)

C[C@H]1CC(=O)C[C@@H]2CC[C@@H]3[C@H](CC[C@]4(C)C(OC(=O)c5cccc6c(=O)c7ccccc7[nH]c56)CC[C@@H]34)[C@]21C (stereo not given in full)
GI50 (MDA-MB-231): 23.6 µM (inactive) | GI50 (MOLT-4): 5.28 µM (inactive) | GI50 (SNB-75): 31.1 µM (inactive) | GI50 (SF-268): 57.5 µM (inactive) | GI50 (NCI-H522): 18.7 µM (inactive) | GI50 (SR): 4.8 µM (inactive) | GI50 (HT-29): 32.5 µM (inactive) | GI50 (RPMI-8226): 11.1 µM (inactive) | GI50 (A498): 30.1 µM (inactive) | GI50 (PC-3): 14.8 µM (inactive) | GI50 (HCT-15): 31.3 µM | GI50 (U-251): 33.1 µM (inactive) | GI50 (NCI-H226): 28.2 µM (inactive) | GI50 (HL-60): 14.3 µM (inactive) | GI50 (SK-MEL-5): 16 µM (inactive) | GI50 (SF-295): 38.5 µM (inactive) | GI50 (NCI-H23): 30.6 µM (inactive) | GI50 (A549): 23.2 µM (inactive) | GI50 (MDA-MB-435): 36.4 µM (inactive)

COC(=O)C1=C(OC(=O)/C=C/c2ccc(Cl)cc2)C(C(=O)OC)[C@]2(O)[C@@H](C(=O)OC)[C@H]1C[C@@H](c1ccccc1)[C@@H]2C(=O)OC (stereo not given in full)
GI50 (MDA-MB-231): 12.4 µM (inactive) | GI50 (MOLT-4): 3.76 µM (inactive) | GI50 (SNB-75): 12.3 µM (inactive) | GI50 (SF-268): 4.66 µM (inactive) | GI50 (NCI-H522): 2.34 µM (inactive) | GI50 (SR): 4.5 µM (inactive) | GI50 (HT-29): 7.74 µM (inactive) | GI50 (RPMI-8226): 3.92 µM (inactive) | GI50 (A498): 6.04 µM (inactive) | GI50 (PC-3): 5.65 µM (inactive) | GI50 (HCT-15): 3.66 µM | GI50 (U-251): 4.74 µM (inactive) | GI50 (NCI-H226): 4.12 µM (inactive) | GI50 (HL-60): 3.81 µM (inactive) | GI50 (SK-MEL-5): 4.55 µM (inactive) | GI50 (SF-295): 9.23 µM (inactive) | GI50 (NCI-H23): 3.44 µM (inactive) | GI50 (A549): 3.7 µM (inactive) | GI50 (MDA-MB-435): 3.82 µM (inactive)

Cc1nc(Nc2ccc(Cl)cc2Cl)sc1C(=O)Nc1ccccc1
GI50 (MDA-MB-231): 56.5 µM (inactive) | GI50 (MOLT-4): 10.9 µM (inactive) | GI50 (SNB-75): 39 µM (inactive) | GI50 (SF-268): 77.6 µM (inactive) | GI50 (NCI-H522): 38.5 µM (inactive) | GI50 (SR): 28.2 µM (inactive) | GI50 (HT-29): 35.3 µM (inactive) | GI50 (RPMI-8226): 29.2 µM (inactive) | GI50 (A498): > 100 µM (inactive) | GI50 (PC-3): 31 µM (inactive) | GI50 (HCT-15): 74.1 µM | GI50 (U-251): 25.9 µM (inactive) | GI50 (NCI-H226): < 0.01 µM (active) | GI50 (HL-60): > 10 µM (inactive) | GI50 (SK-MEL-5): 37.9 µM (inactive) | GI50 (SF-295): 29.9 µM (inactive) | GI50 (NCI-H23): 46 µM (inactive) | GI50 (A549): 36.6 µM (inactive) | GI50 (MDA-MB-435): 42.2 µM (inactive)

O=S(=O)(O)C(CO)c1ccccc1.O=S(=O)(O)Cc1ccccc1 (stereo not given)
GI50 (MDA-MB-231): > 100 µM (inactive) | GI50 (MOLT-4): > 100 µM (inactive) | GI50 (SNB-75): > 100 µM (inactive) | GI50 (SF-268): > 100 µM (inactive) | GI50 (NCI-H522): > 100 µM (inactive) | GI50 (SR): > 100 µM (inactive) | GI50 (HT-29): > 100 µM (inactive) | GI50 (RPMI-8226): > 100 µM (inactive) | GI50 (A498): > 100 µM (inactive) | GI50 (PC-3): > 100 µM (inactive) | GI50 (HCT-15): > 100 µM | GI50 (U-251): > 100 µM (inactive) | GI50 (NCI-H226): > 100 µM (inactive) | GI50 (HL-60): 5.35 µM (inactive) | GI50 (SK-MEL-5): > 100 µM (inactive) | GI50 (SF-295): > 100 µM (inactive) | GI50 (NCI-H23): > 100 µM (inactive) | GI50 (A549): > 100 µM (inactive) | GI50 (MDA-MB-435): > 100 µM (inactive)

C[C@]12C[C@@H](c3ccccc3)Nc3ccccc3N1C(c1ccccc1)=NO2
GI50 (MDA-MB-231): 45.5 µM (inactive) | GI50 (MOLT-4): 18 µM (inactive) | GI50 (SNB-75): 16.6 µM (inactive) | GI50 (SF-268): 88.5 µM (inactive) | GI50 (NCI-H522): 35.9 µM (inactive) | GI50 (SR): 1.8 µM (inactive) | GI50 (HT-29): 30.6 µM (inactive) | GI50 (RPMI-8226): 20.3 µM (inactive) | GI50 (A498): 43.3 µM (inactive) | GI50 (PC-3): 43 µM (inactive) | GI50 (HCT-15): 35.4 µM | GI50 (U-251): 44.2 µM (inactive) | GI50 (NCI-H226): 32.4 µM (inactive) | GI50 (HL-60): 46.2 µM (inactive) | GI50 (SK-MEL-5): 16.1 µM (inactive) | GI50 (SF-295): 16 µM (inactive) | GI50 (NCI-H23): 30.7 µM (inactive) | GI50 (A549): 54.3 µM (inactive) | GI50 (MDA-MB-435): 24.5 µM (inactive)

Clc1ccccc1C(Nc1ncccn1)Nc1ncccn1
GI50 (MDA-MB-231): > 100 µM (inactive) | GI50 (MOLT-4): > 100 µM (inactive) | GI50 (SNB-75): 47 µM (inactive) | GI50 (SF-268): > 100 µM (inactive) | GI50 (NCI-H522): > 100 µM (inactive) | GI50 (SR): 8.15 µM (inactive) | GI50 (HT-29): > 100 µM (inactive) | GI50 (RPMI-8226): > 100 µM (inactive) | GI50 (A498): > 100 µM (inactive) | GI50 (PC-3): > 100 µM (inactive) | GI50 (HCT-15): > 100 µM | GI50 (U-251): > 100 µM (inactive) | GI50 (NCI-H226): > 100 µM (inactive) | GI50 (HL-60): > 100 µM (inactive) | GI50 (SK-MEL-5): > 100 µM (inactive) | GI50 (SF-295): > 100 µM (inactive) | GI50 (NCI-H23): > 100 µM (inactive) | GI50 (A549): > 100 µM (inactive) | GI50 (MDA-MB-435): 76.6 µM (inactive)
